Reference: patent US9809623B2, “α4β7 peptide monomer and dimer antagonists” (Protagonist Therapeutics, Inc., priority 2014, dated 2017)

Assays:
[1] = Simulated Intestinal Fluid (SIF) Stability Assay; format: in vitro ADME, porcine; details: pig, simulated intestinal fluid (SIF) with 1% porcine pancreatin, pH 6.5, Table 4-C, t1/2; > means assay stopped at that time; read-out: SIF (porcine) Min
How it was run: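 Intestinal stability: percent peptide remaining over time, by LC-MS/MS peak-area ratio to internal standard, fitted to first-order decay for half-life. Conditions: 22 μM peptide, 1% pancreatin in pH 6.5 blank FASSIF, 37 °C.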

[2] = Simulated Gastric Fluid (SGF) Assay; format: in vitro ADME; details: pig, simulated gastric fluid (SGF) with porcine pepsin, pH 2; Table 4-C, t1/2
Experimental: SGF was prepared by adding 20 mg NaCl, 32 mg porcine pepsin (MP Biochemicals, catalog 02102599), and 70 μl HCl to 10 ml water (final pH=2). Aliquots of SGF (0.5 ml each) were pre-warmed at 37° C. For each peptide tested, to start the reaction, 1 μl of peptide stock solution (10 mM in DMSO) was added to 0.5 ml SGF and thoroughly mixed such that the final peptide concentration was 20 μM. The reactions were incubated at 37° C. with gentle shaking. At each time point (0, 15, 30, 60 min), 50 μl aliquots were removed and added to 200 ul acetonitrile containing 0.1% formic acid to quench the reaction. Samples were stored at 4° C. until the end of the experiment and centrifuged at 10,000 rpm for 5 minutes. Aliquots of the supernatant were removed, diluted 1:1 into distilled water containing internal standard, and analyzed by LCMS/MS. Percent remaining at each timepoint was calculated based on the peak area response ratio of test compound to internal standard. Time 0 was set to 100%, and all later timepoints were calculated relative to time 0. Half-lives were calculated by fitting to a first-order exponential decay equation using GraphPad.

Plasma Stability Assay = format: in vitro ADME; details: rat, Table 4-C, t1/2
Experimental: 0.5 mL of rat plasma (one tube per peptide, volume depends on how many time points are to be collected, 50 μL per time point) was added to each well of a 96-well polypropylene plate, and the tubes were incubated in a heated water bath, preset to 37° C. with gentle shaking. 1 μL of 10 mM peptide stock solution was added to each tub, and then 200 μL of Acetonitrile w/0.1% Formic Acid was added to each tube (1:4). Samples were collected at the following time points: 0, 10, 30, 45, 60, 120, 180 mins. When all time points were collected, the plate was centrifuged at 5000 rpm for 5 mins. LCM analysis was performed by pipetting 100 μL of each sample to appropriate well of a 96-well deep plate. 100 μL of an internal standard peptide (1 ug/mL) was added in Mobile Phase A to each well. The plate was vortexed and injected

α4β7 integrin = α4β7 integrin (Homo sapiens, UniProt P13612+P26010, DEL724-798); test: Surface plasmon resonance (SPR), binding of soluble α4β7 integrin to immobilized biotin-labeled ligand
Description: Surface plasmon resonance (SPR) was used to further evaluate the binding properties of Peptide X. An analog of Peptide X (Peptide X-biotin), which contains a biotin group attached to Peptide X via a PEG linker, was synthesized. Another peptide dimer having the following structure, which is closely related to Peptide X, was also synthesized and biotin-labeled:
• (Peptide Z). Vedolizumab was also chemically biotinylated. Peptide X-biotin, Peptide Z-biotin, or biotin-labeled vedolizumab antibody was immobilized to a streptavidin coated SPR chip, and the binding of soluble α4β7 integrin was measured. […] This half-life is quite long, and may be caused by a tight association between the peptide and the bound Mn^2+ metal ion on the integrin. […] In addition, the KD for Peptide X-biotin was substantially lower than that for Peptide Z-biotin.

[3] = test system: cell types in human whole blood; test: FACS binding specificity in human whole blood; format: cell-based; details: 1 nM, 1 mM MnCl2
Experimental: To further evaluate the selectivity of Peptide X in human blood, the fluorescent dye Alexa 647 was conjugated to Peptide X at the same position used for attaching biotin. […] Heparinized human whole blood was supplemented with 1 mM MnCl2, and stained with the Peptide X-Alexa 647 conjugate or biotinylated vedolizumab for 1 hour at room temperature. The samples were fixed (red blood cells lysed) and washed. The vedolizumab samples were stained separately with streptavidin Alexa 647 for stain for 30 minutes at room temperature. FACS analysis was used to assess binding of the peptide or vedolizumab to a broad panel of cell types including NK cells, basophils, monocytes, eosinophils, neutrophils, CD4 naïve T cells, CD4 memory T cells, CD8 naïve T cells, CD8 memory T cells, and B cells. […] The binding specificity for vedolizmab shown in Table 7 is also very similar to that reported in the literature (Soler et al, JPET 330:864-875, 2009).

αEβ7 integrin = test: FACS binding in cynomolgus monkey blood (α4β7 / αEβ7 expressing cells); format: cell-based; details: cyno blood, 1 nM
Experimental: Blood from cynomolgus monkeys was also analyzed by FACS.
Binding to αEβ7 integrin in cyno blood was also tested. Cyno blood was incubated with 1 nM Peptide X-Alexa 647, and cells expressing α4β7 or αEβ7 were analyzed by FACS. […] Binding to α4β7 was specific, because it could be blocked in the presence of a large excess (1 uM) of unlabeled Peptide X. Therefore under these conditions, it was concluded that Peptide X binds α4β7, not αEβ7.

α4β7 integrin, sequence (P13612 34-977 limits assumed, stated change not applied): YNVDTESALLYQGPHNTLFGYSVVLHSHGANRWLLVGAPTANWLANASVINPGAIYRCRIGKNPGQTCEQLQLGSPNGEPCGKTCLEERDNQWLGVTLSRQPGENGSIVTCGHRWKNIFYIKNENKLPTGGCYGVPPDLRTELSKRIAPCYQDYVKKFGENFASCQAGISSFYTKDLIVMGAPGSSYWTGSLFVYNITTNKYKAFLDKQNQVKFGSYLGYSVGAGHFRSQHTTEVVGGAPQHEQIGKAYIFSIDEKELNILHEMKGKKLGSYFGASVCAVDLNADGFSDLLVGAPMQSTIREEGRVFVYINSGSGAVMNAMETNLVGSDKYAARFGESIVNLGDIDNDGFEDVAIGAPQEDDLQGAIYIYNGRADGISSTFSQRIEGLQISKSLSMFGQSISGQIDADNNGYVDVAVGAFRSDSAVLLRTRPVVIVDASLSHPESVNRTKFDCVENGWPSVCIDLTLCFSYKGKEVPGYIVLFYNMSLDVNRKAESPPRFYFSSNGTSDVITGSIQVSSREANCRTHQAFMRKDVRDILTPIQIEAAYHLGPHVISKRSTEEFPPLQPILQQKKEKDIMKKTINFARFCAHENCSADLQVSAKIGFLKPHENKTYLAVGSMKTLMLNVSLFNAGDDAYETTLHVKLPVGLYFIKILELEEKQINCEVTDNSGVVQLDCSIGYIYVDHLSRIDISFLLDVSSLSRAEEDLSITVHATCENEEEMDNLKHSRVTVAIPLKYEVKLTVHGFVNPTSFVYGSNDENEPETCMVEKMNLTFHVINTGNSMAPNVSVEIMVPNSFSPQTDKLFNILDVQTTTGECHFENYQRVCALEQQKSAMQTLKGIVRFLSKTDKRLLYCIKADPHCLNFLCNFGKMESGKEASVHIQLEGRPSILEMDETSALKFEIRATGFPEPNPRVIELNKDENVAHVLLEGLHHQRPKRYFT
α4β7 integrin, sequence (P26010 20-723 limits assumed, stated change not applied): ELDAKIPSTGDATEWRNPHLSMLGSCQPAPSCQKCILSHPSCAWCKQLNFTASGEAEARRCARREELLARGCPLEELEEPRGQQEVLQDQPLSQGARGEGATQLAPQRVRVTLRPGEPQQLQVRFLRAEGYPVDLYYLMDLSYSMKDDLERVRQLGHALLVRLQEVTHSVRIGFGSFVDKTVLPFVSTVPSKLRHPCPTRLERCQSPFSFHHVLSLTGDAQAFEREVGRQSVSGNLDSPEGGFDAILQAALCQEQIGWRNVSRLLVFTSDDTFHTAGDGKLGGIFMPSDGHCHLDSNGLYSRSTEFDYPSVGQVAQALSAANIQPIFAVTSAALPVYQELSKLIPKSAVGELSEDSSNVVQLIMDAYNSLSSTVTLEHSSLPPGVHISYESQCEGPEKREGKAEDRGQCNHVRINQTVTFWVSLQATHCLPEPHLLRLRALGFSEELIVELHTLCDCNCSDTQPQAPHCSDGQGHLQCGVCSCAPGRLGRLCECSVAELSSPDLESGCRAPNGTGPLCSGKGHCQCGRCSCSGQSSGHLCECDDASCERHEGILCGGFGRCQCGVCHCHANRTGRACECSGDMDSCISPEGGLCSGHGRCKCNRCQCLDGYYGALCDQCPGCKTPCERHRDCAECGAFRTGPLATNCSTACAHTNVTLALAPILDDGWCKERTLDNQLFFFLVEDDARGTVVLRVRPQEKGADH

SMILES: CC(=O)N[C@H]1CSSC(C)(C)[C@@H](C(=O)N[C@H](CCCCNC(=O)CN(CC(=O)NCCCC[C@@H](NC(=O)[C@H]2NC(=O)[C@H](CC(C)C)NC(=O)[C@H]([C@@H](C)O)NC(=O)[C@H](CC(=O)O)NC(=O)[C@H](CO)NC(=O)[C@H](CCCNC(=N)N)N(C)C(=O)[C@@H](NC(C)=O)CSSC2(C)C)C(N)=O)C(=O)CCN)C(N)=O)NC(=O)[C@H](CC(C)C)NC(=O)[C@H]([C@@H](C)O)NC(=O)[C@H](CC(=O)O)NC(=O)[C@H](CO)NC(=O)[C@H](CCCNC(=N)N)N(C)C1=O [compound 203, (Ac-C-N-Me-R-S-D-T-L-Pen-k-NH2)2-IDA]
- half-life at 22 μM [1]: > 293 min
- half-life at 20 μM [2]: > 360 min
- half-life at 20 μM (Plasma Stability Assay): > 360 min

SMILES: CC(=O)N[C@@H]1C(=O)N(C)[C@@H](CCCNC(=N)N)C(=O)N[C@@H](CO)C(=O)N[C@@H](CC(=O)O)C(=O)N[C@@H]([C@@H](C)O)C(=O)N[C@@H](CC(C)C)C(=O)N[C@H](C(=O)N[C@@H](Cc2ccc(C(C)(C)C)cc2)C(=O)N[C@@H](CCC(=O)O)CC(=O)N[C@H](CCCCNC(=O)CN(CC(=O)NCCCC[C@@H](NC(=O)C[C@H](CCC(=O)O)NC(=O)[C@H](Cc2ccc(C(C)(C)C)cc2)NC(=O)[C@H]2NC(=O)[C@H](CC(C)C)NC(=O)[C@H]([C@@H](C)O)NC(=O)[C@H](CC(=O)O)NC(=O)[C@H](CO)NC(=O)[C@H](CCCNC(=N)N)N(C)C(=O)[C@@H](NC(C)=O)C(C)(C)SSC2(C)C)C(N)=O)C(=O)CCNC(=O)CCOCCOCCOCCOCCNC(=O)CCCC[C@@H]2SC[C@@H]3NC(=O)N[C@@H]32)C(N)=O)C(C)(C)SSC1(C)C [Peptide X-biotin]
- KD lower than that for biotin-labeled vedolizumab (α4β7 integrin): 3.8 fold
- kd (α4β7 integrin): 0.0000173 s⁻¹
- kon (α4β7 integrin; read-out: ka): 1120 M⁻¹ s⁻¹

SMILES: CC(=O)N[C@@H]1C(=O)N(C)[C@@H](CCCNC(=N)N)C(=O)N[C@@H](CO)C(=O)N[C@@H](CC(=O)O)C(=O)N[C@@H]([C@@H](C)O)C(=O)N[C@@H](CC(C)C)C(=O)N[C@H](C(=O)N[C@@H](Cc2ccc(C(C)(C)C)cc2)C(=O)N[C@@H](CCC(=O)O)CC(=O)N[C@H](CCCCNC(=O)CN(CC(=O)NCCCC[C@@H](NC(=O)C[C@H](CCC(=O)O)NC(=O)[C@H](Cc2ccc(C(C)(C)C)cc2)NC(=O)[C@H]2NC(=O)[C@H](CC(C)C)NC(=O)[C@H]([C@@H](C)O)NC(=O)[C@H](CC(=O)O)NC(=O)[C@H](CO)NC(=O)[C@H](CCCNC(=N)N)N(C)C(=O)[C@@H](NC(C)=O)C(C)(C)SSC2(C)C)C(N)=O)C(=O)CCNC(=O)CCCCCC2(C)C(=CC=CC=CC3=[N+](CCCS(=O)(=O)[O-])c4ccc(S(=O)(=O)O)cc4C3(C)C)N(CCCS(=O)(=O)O)c3ccc(S(=O)(=O)O)cc32)C(N)=O)C(C)(C)SSC1(C)C (single isomer, unassigned) [Peptide X-Alexa 647]
- Percent positive staining, Basophils [3]: 87%
- Percent positive staining, CD4 memory T cells [3]: 20%
- Percent positive staining, CD4 naïve T cells [3]: 51%
- Percent positive staining, CD8 memory T cells [3]: 36%
- Percent positive staining, CD8 naïve T cells [3]: 52%
- Percent positive staining, CD19+ B cells [3]: 78%
- Percent positive staining, Eosinophils [3]: 92%
- Percent positive staining, Monocytes [3]: 7%
- Percent positive staining, NK cells CD16+ 56+ [3]: 45%
- Percent positive staining, Neutrophils [3]: 0.35%
- Binding to α4β7+ and αEβ7+ CD4 memory T cells (αEβ7 integrin): bound to α4β7^+, but not αEβ7^+ cells
